# Read-outs that look alike come from different tables or passages of the source.
# How the values were obtained:
# [1] = UP0078 phase 1 food/ITZ study: safety and tolerability in healthy participants
# Description: UP0078 was a phase 1, open‐label study to evaluate the potential effect of food on the bioavailability of UCB0599 and to test the potential effect of ITZ on the disposition of UCB0599 in HPs. A randomized, two‐way crossover design with a third fixed‐treatment period was used (Fig. S2).
# Participants received a single 180 mg dose of UCB0599 on three separate occasions, with a washout period of ≥7 days between doses. The first dose was administered under fasted conditions, the second under fed conditions, and the third under fasted conditions co‐administered with ITZ (200 mg once daily, days 15–22).
# The study was conducted at a phase 1 unit in the United Kingdom.
# The primary objectives were to assess the potential effect of food intake (standard high‐fat, high‐calorie meal) on single‐dose PK of UCB0599 and to evaluate and compare the single‐dose PK of UCB0599 in the presence or absence of ITZ. The secondary and exploratory objectives were to evaluate the safety and tolerability of UCB0599 under fasted and fed conditions, and with/without concomitant administration of ITZ; to evaluate UCB0599 metabolite plasma PK in the presence or absence of ITZ; and to assess the potential effect of food intake on the single‐dose PK of UCB0599 metabolites.
# Primary PK variables were AUC0–t , AUC0–inf, C max, and t max. Primary safety variables were the incidence of TEAEs and serious TEAEs. […]
# [2] = UP0030 phase 1 study: plasma pharmacokinetics of UCB0599 and its metabolites; format: in vivo, human; settings: for AUC: read-out: AUC, GeoMean; for Cmax: read-out: C max, GeoMean
# Description: Statistical evaluations for all three studies were performed using SAS version 9.4 (SAS, Cary, NC, USA), and PK data were analyzed using Phoenix WinNonlin software (Certara, Princeton, NJ, USA). Continuous variables were summarized with number of participants, mean, standard deviation, median, minimum and maximum, and confidence intervals (CI) for the mean. Categorical variables were summarized with frequency counts and percentages.
# [3] = UP0030 phase 1 SAD/MAD study: safety and tolerability in healthy participants
# Description: Part 1 (Fig. S1A) was a randomized, subject‐ and investigator‐blind, placebo‐controlled study in healthy older participants (HOP). Part 2 (Fig. S1B) was an open‐label, two‐way crossover study in HPs.
# Part 1 included five cohorts (1, 2, 1b, 2b, and 3) and evaluated SADs (SAD: 90, 180, 360, and 450 mg) and MADs of UCB0599 (MAD: 180 and 360 mg/day). […] The first two doses were administered as a two‐way crossover (under fasting/fed or fed/fasting conditions), and the third dose was administered to both arms under fasted conditions with 200 mg of ITZ (once daily, days −3 to 2) to assess potential drug–drug interactions.
# Eligible participants were aged ≥18 years (part 1, 55–75 years for HOP; part 2, <55 years) with a body mass index (BMI) of 18–32 kg/m^2 and a body weight of ≥50 kg. The study was conducted at a phase 1 unit in Germany.
# The primary objective was to evaluate the safety and tolerability of UCB0599 after the administration of single and multiple doses in HOP. The secondary objectives are to evaluate the PK of UCB0599 and its desmethyl and N‐oxide metabolites after the administration of single and multiple doses in HOP and to evaluate the PK, safety, and tolerability of UCB0599 in HPs when given a single dose alone, with food or with ITZ.
# Safety variables included the incidence of any treatment‐emergent adverse event (TEAE), changes in vital signs, laboratory assessments, 12‐lead electrocardiogram (ECG) and Holter ECG assessment, and the Columbia Suicide Severity Rating Scale (C‐SSRS). PK variables included maximum plasma concentration (C max), time of maximum concentration (t max), AUC (area under the plasma concentration–time curve) from time 0 to last quantifiable concentration (AUC0–t ), AUC from time 0 to infinity (AUC0–inf), apparent total body clearance, apparent volume of distribution, and apparent elimination half‐life (t 1/2).
# [4] = human, plasma, oral, UP0030 single dose 90 mg
# [5] = human, plasma, oral, UP0030 single dose 450 mg
# [6] = UP0030, UCB0599 180 mg/day, n=17
# [7] = UP0030 part 2, fasted UCB0599 360 mg, n=3
# [8] = UP0030 part 2, fed UCB0599 360 mg, n=3
smiles,measurement,setting,value
"CCC(C)n1ncn(-c2ccc(N3CCN(c4ccc(OCC5COC(Cn6cncn6)(c6ccc(Cl)cc6Cl)O5)cc4)CC3)cc2)c1=O (stereo not drawn) [ITZ, itraconazole, reference compound]",TEAE considered related to the substance,[1],9.1%
CCCC[C@H](Cc1c[nH]c2ccccc12)NC(=O)c1cnc(N2CCN(C)CC2)s1 [UCB0599],"Plasma steady‐state concentration achieved, on average","[2]; UP0030, 180 mg/day",≤ 7 days
same,Tmax,"[2]; human, plasma, oral, UP0030, UCB0599 180 mg/day, read-out: Median t max after multiple doses",1.5 to 3 h
same,Tmax,"[2]; human, plasma, oral, UP0030 single ascending doses 90–450 mg, read-out: t max range",1.5 to 2 h
same,half-life,"[2]; human, plasma, oral, UP0030 single ascending doses of UCB0599, across dose groups, read-out: Apparent elimination half‐life, GeoMean range",10.6 to 13 h
same,AUC,[2]; [4],3220 ng·h/mL
same,Cmax,[2]; [4],374 ng/mL
same,AUC,[2]; [5],17000 ng·h/mL
same,Cmax,[2]; [5],1810 ng/mL
same,Hypersensitivity reactions,[3]; UP0030,2 n
same,"Treatment‐related patterns for vital signs, ECG tracings, or laboratory findings",[3]; UP0030,no discernible UCB0599 treatment‐related patterns
same,TEAE Diarrhea,"[3]; UP0030, UCB0599 90 mg, n=9",0 n (%) […]
same,TEAE Drug hypersensitivity,"[3]; UP0030, UCB0599 90 mg, n=9",0 n (%) […]
same,TEAE Fatigue,"[3]; UP0030, UCB0599 90 mg, n=9",0 n (%) […]
same,TEAE Nasopharyngitis,"[3]; UP0030, UCB0599 90 mg, n=9",0 n (%) […]
same,TEAE Diarrhea,"[3]; UP0030, UCB0599 180 mg, n=17",0 n (%) […]
same,TEAE Drug hypersensitivity,"[3]; UP0030, UCB0599 180 mg, n=17",0 n (%) […]
same,TEAE Fatigue,"[3]; UP0030, UCB0599 180 mg, n=17",0 n (%) […]
same,TEAE Headache,"[3]; UP0030, UCB0599 180 mg, n=17",0 n (%) […]
same,TEAE Myalgia,"[3]; UP0030, UCB0599 180 mg, n=17",0 n (%) […]
same,TEAE Nasopharyngitis,"[3]; UP0030, UCB0599 180 mg, n=17",0 n (%) […]
same,TEAE Postlumbar puncture syndrome,"[3]; UP0030, UCB0599 180 mg, n=17",0 n (%) […]
same,TEAE Diarrhea,[3]; [6],0 n (%) […]
same,TEAE Fatigue,[3]; [6],0 n (%) […]
same,TEAE Postlumbar puncture syndrome,[3]; [6],0 n (%) […]
same,TEAE Presyncope,[3]; [6],0 n (%) […]
same,TEAE Drug hypersensitivity,"[3]; UP0030, UCB0599 360 mg, n=18",0 n (%) […]
same,TEAE Myalgia,"[3]; UP0030, UCB0599 360 mg, n=18",0 n (%) […]
same,TEAE Nasopharyngitis,"[3]; UP0030, UCB0599 360 mg, n=18",0 n (%) […]
same,TEAE Presyncope,"[3]; UP0030, UCB0599 360 mg, n=18",0 n (%) […]
same,TEAE Drug hypersensitivity,"[3]; UP0030, UCB0599 450 mg, n=9",0 n (%) […]
same,TEAE Fatigue,"[3]; UP0030, UCB0599 450 mg, n=9",0 n (%) […]
same,TEAE Myalgia,"[3]; UP0030, UCB0599 450 mg, n=9",0 n (%) […]
same,TEAE Presyncope,"[3]; UP0030, UCB0599 450 mg, n=9",0 n (%) […]
same,TEAE Puncture site pain,"[3]; UP0030, UCB0599 450 mg, n=9",0 n (%) […]
same,Time to resolution of HSRs,"[3]; UP0030, after oral antihistamines",≤ 3 days
same,Participants reporting serious TEAEs,[3]; UP0030 part 1,4.4%
same,Deaths,"[3]; UP0030 part 1, all UCB0599 N=45",0 n (%) […]
same,Discontinuations due to drug hypersensitivity,"[3]; UP0030 part 1, total UCB0599",2 participants
same,Participants reporting TEAEs,"[3]; UP0030 part 1, total UCB0599",66.7%
same,Participants reporting severe TEAEs,"[3]; UP0030 part 1, total UCB0599",6.7%
same,Participants who discontinued due to TEAEs,"[3]; UP0030 part 1, total UCB0599",11.1%
same,Any TEAEs,[3]; [7],0 n (%) […]
same,Deaths,[3]; [7],0 n (%) […]
same,Discontinuations due to TEAEs,[3]; [7],0 n (%) […]
same,Drug‐related TEAEs,[3]; [7],0 n (%) […]
same,Serious TEAEs,[3]; [7],0 n (%) […]
same,Severe TEAEs,[3]; [7],0 n (%) […]
same,Participants reporting TEAEs,"[3]; UP0030 part 2, fed UCB0599 360 mg",33.3%
same,Deaths,[3]; [8],0 n (%) […]
same,Discontinuations due to TEAEs,[3]; [8],0 n (%) […]
same,Drug‐related TEAEs,[3]; [8],0 n (%) […]
same,Serious TEAEs,[3]; [8],0 n (%) […]
same,Severe TEAEs,[3]; [8],0 n (%) […]
